Test results reported in patent US20040242591A1, “Oxazolidinone derivatives as pontential antimicrobials” (priority 2001, published 2004).

Experiments:
S.aureus ATCC 25923 = experiment: MIC by agar incorporation method, S.aureus 25923; type: cell-based, Staphylococus aureus; parameters: unit not given here; conditions: Mueller Hinton agar, 10^4 CFU/spot, 18 hours
MRSA 15187 = experiment: MIC by agar incorporation method, MRSA 15187; type: cell-based, Methicillin Resistant Staphylococcus aureus; parameters: unit not given here; conditions: Mueller Hinton agar, 10^4 CFU/spot, 24 hours
Text: 2) MRSA 15187—Methicillin Resistant Staphylococcus aureus

MRSA 562 = experiment: MIC by agar incorporation method, MRSA 562; type: cell-based, Methicillin Resistant Staphylococcus aureus; parameters: unit not given here; conditions: Mueller Hinton agar, 10^4 CFU/spot, 24 hours
MRSA 33 = experiment: MIC by agar incorporation method, MRSA 33; type: cell-based, Methicillin Resistant Staphylococcus aureus; parameters: unit not given here; conditions: Mueller Hinton agar, 10^4 CFU/spot, 24 hours
Ent. faecalis ATCC 29212 = experiment: MIC by agar incorporation method, E.faecalis 29212; type: cell-based, Enterococcus faecalis; parameters: unit not given here; conditions: Mueller Hinton agar, 10^4 CFU/spot, 18 hours
Text: 3) Ent. faecalis ATCC 29212—Enterococcus faecalis ATCC 29212

VRE 6A = experiment: MIC by agar incorporation method, VRE 6A; type: cell-based, Enterococcus faecium; parameters: unit not given here; conditions: Mueller Hinton agar, 10^4 CFU/spot, 18 hours
Text: 4) Ent. faecium […]—Enterococcus faecium 6A Van®, Cipro®

Strep.pyog. ATCC 19615 = experiment: MIC by agar incorporation method, S.pyogenes 19615; type: cell-based, Streptococcus pyogenes; parameters: unit not given here; conditions: Mueller Hinton agar, 10^4 CFU/spot, 18 hours
Text: 6) Strep.pyog. ATCC 19615—Streptococcus pyogenes

Strep. pne. ATCC 6303 = experiment: MIC by agar incorporation method, S. pneum 6303; type: cell-based, Streptococcus pneumoniae; conditions: Mueller Hinton agar, 10^4 CFU/spot, 18 hours
Text: 5) Strep. pne. ATCC 6303—Streptococcus pneumoniae ATCC 6303

S. pneum AB 34 = experiment: MIC by agar incorporation method, S. pneum AB 34; type: cell-based, Streptococcus pneumoniae; parameters: unit not given here; conditions: Mueller Hinton agar, 10^4 CFU/spot, 18 hours

Row | Structure (SMILES) | In Vitro (MIC) S.aureus 25923 (S.aureus ATCC 25923) | In Vitro (MIC) MRSA 15187 (MRSA 15187) | In Vitro (MIC) MRSA 562 (MRSA 562) | In Vitro (MIC) MRSA 33 (MRSA 33) | In Vitro (MIC) E.faecalis 29212 (Ent. faecalis ATCC 29212) | In Vitro (MIC) VRE 6A (VRE 6A) | In Vitro (MIC) S.pyogenes 19615 (Strep.pyog. ATCC 19615) | In Vitro (MIC) S. pneum 6303 (Strep. pne. ATCC 6303) | In Vitro (MIC) S. pneum AB 34 (S. pneum AB 34)
1 | CC(=O)NC[C@H]1CN(c2ccc(N3CCN(Cc4oc([N+](=O)[O-])cc4C)CC3)c(F)c2)C(=O)O1 [Compound No. 5] | 2 | 2 | 2 | 0.254 | 2 | 4 | 0.5 | 1 µg/mL | 1
2 | COc1ccc(CN2CCN(c3ccc(N4C[C@H](CNC(C)=O)OC4=O)cc3F)CC2)o1 [Compound No. 15, (S)-N-[[3-[3-Fluoro-4-[N-1-[4-{2-furyl-(5-methoxy)methyl}]piperazinyl]phenyl]-2-oxo-5-oxazolidinyl]methyl]acetamide] | 4 | 4 | 4 | 4 | 4 | 4 | 2 | 2 µg/mL | 2
3 | CC(=O)NC[C@H]1CN(c2ccc(N3CCN(Cc4ccc([N+](=O)[O-])n4C)CC3)c(F)c2)C(=O)O1 [Compound No. 12, (S)-N-[[3-[3-Fluoro-4-[N-1-[4-{2-pyrrole-(1-methyl-5-nitro)methyl}]piperazinyl]phenyl]-2-oxo-5-oxazolidinyl]methyl]acetamide] | 4 | 4 | 4 | 4 | 4 | 4 | 2 | 8 µg/mL | 8
4 | CC(=O)NC[C@H]1CN(c2ccc(N3C(C)CN(Cc4ccc([N+](=O)[O-])o4)CC3C)c(F)c2)C(=O)O1 (stereo partly drawn) [Compound No. 63, (S)-N-[[3-[3-Fluoro-4-[N-1-[2,6-dimethyl-4-{2-furyl-(5-nitro)methyl-}]-piperazinyl]phenyl]-2-oxo-5-oxazolidinyl]methyl]acetamide] | 16 | 8 | 8 | 8 | 8 | 8 | 16 | 16 µg/mL | 16
5 | CC(=O)NC[C@H]1CN(c2ccc(N3CCC(N=Cc4ccc([N+](=O)[O-])o4)CC3)c(F)c2)C(=O)O1 [Compound No. 85, (S)-N-[[3-[3-Fluoro-4-[4-{2-furyl-(5-nitro)methylene]-aminopiperidine-1-yl]phenyl]-2-oxo-5-oxazolidinyl]methyl]acetamide] | 4 | 4 | 4 | 4 | >8 | >8 | 2 | 4 µg/mL | 4
6 | CC(=O)NC[C@H]1CN(c2ccc(N3CCCN(Cc4ccc([N+](=O)[O-])o4)CC3)c(F)c2)C(=O)O1 [Compound No. 52, (S)-N-[[3-[3-Fluoro-4-[N-1-[4-{2-furyl(5-nitro)methyl}]homopiperazinyl]phenyl]-2-oxo-5-oxazolidinyl]methyl]acetamide] | 2 | 2 | 1 | 2 | 2 | 2 | 1 | 1 µg/mL | 4
7 | CC(=O)NC[C@H]1CN(c2ccc(N3CCN(C(=O)c4cc(N(C)C)c([N+](=O)[O-])s4)CC3)c(F)c2)C(=O)O1 [Compound No. 38] | 8 | 4 | 4 | 4 | 4 | 4 | 2 | 2 µg/mL | 2
8 | CC(=O)NC[C@H]1CN(c2ccc(N3CCCN(C(=O)c4ccc([N+](=O)[O-])s4)CC3)c(F)c2)C(=O)O1 [Compound No. 54, (S)-N-[[3-[3-Fluoro-4-[N-1-[4-{2-thiophenoyl-(5-nitro)}]homopiperazinyl]phenyl]-2-oxo-5-oxazolidinyl]methyl]acetamide] | 1 | 0.5 | 0.5 | 0.5 | 1 | 0.5 | 0.25 | 8 µg/mL | 8

Second part, the compound after the results:

Row | In Vitro (MIC) S.aureus 25923 (S.aureus ATCC 25923) | In Vitro (MIC) MRSA 15187 (MRSA 15187) | In Vitro (MIC) MRSA 562 (MRSA 562) | In Vitro (MIC) MRSA 33 (MRSA 33) | In Vitro (MIC) E.faecalis 29212 (Ent. faecalis ATCC 29212) | In Vitro (MIC) VRE 6A (VRE 6A) | In Vitro (MIC) S.pyogenes 19615 (Strep.pyog. ATCC 19615) | In Vitro (MIC) S. pneum 6303 (Strep. pne. ATCC 6303) | In Vitro (MIC) S. pneum AB 34 (S. pneum AB 34) | Structure (SMILES)
9 | 8 | 8 | 4 | 4 | 8 | 8 | 2 | 2 µg/mL | 8 | CC(=O)NC[C@H]1CN(c2ccc(N3CCN(CC(=O)c4cccs4)CC3)c(F)c2)C(=O)O1 [Compound No. 2, (S)-N-[[3-[3-Fluoro-4-[N-1-[4-(2-thiophenoyl-methyl}]piperazinyl]phenyl]-2-oxo-5-oxazolidinyl]methyl]acetamide]
10 | 2 | 1 | 1 | 2 | 2 | 2 | 4 | 4 µg/mL | 4 | CC(=O)NC[C@H]1CN(c2ccc(N3CCN(Cc4cc(Br)c([N+](=O)[O-])s4)CC3)c(F)c2)C(=O)O1 [Compound No. 4]
11 | 1 | 0.5 | <0.25 | 0.5 | <0.25 | <0.25 | 1 | 1 µg/mL | 1 | CC(=O)NC[C@H]1CN(c2ccc(N3CCC(N(C)C(=O)c4ccc([N+](=O)[O-])o4)C3)c(F)c2)C(=O)O1 (stereo partly drawn) [Compound No. 92]
12 | 4 | 4 | 4 | 4 | 2 | 2 | 16 | 16 µg/mL | 16 | O=C(CCl)NC[C@H]1CN(c2ccc(N3CCN(Cc4cc(Br)c([N+](=O)[O-])s4)CC3)c(F)c2)C(=O)O1 [Compound No. 48]
13 | <0.25 | <0.25 | <0.25 | <0.25 | 0.5 | 1 | <0.25 | 1 µg/mL | 1 | CC(=O)NC[C@H]1CN(c2ccc(N3CCC(N(C)C(=O)c4ccc([N+](=O)[O-])s4)C3)c(F)c2)C(=O)O1 (stereo partly drawn) [Compound No. 91]
14 | 4 | 4 | 4 | 4 | 4 | 4 | 2 | 2 µg/mL | 2 | CC(=O)NC[C@H]1CN(c2ccc(N3C(C)CN(C(=O)c4ccco4)CC3C)c(F)c2)C(=O)O1 (stereo partly drawn) [Compound No. 61, (S)-N-[[3-[3-Fluoro-4-[N-1-[2,6-dimethyl-4-{2-furoyl-}]-piperazinyl]phenyl]-2-oxo-5-oxazolidinyl]methyl]acetamide]
15 | 2 | 2 | 2 | 2 | 2 | 2 | 0.5 | 0.5 µg/mL | 1 | O=C(CCl)NC[C@H]1CN(c2ccc(N3CCN(Cc4ccc([N+](=O)[O-])o4)CC3)c(F)c2)C(=O)O1 [Compound No. 46]
16 | 4 | 2 | 2 | 2 | 4 | 4 | 4 | 4 µg/mL | 8 | CC(=O)NC[C@H]1CN(c2ccc(N3CCC(CN(C)Cc4ccc([N+](=O)[O-])s4)CC3)c(F)c2)C(=O)O1 [Compound No. 94]
